The record followed here is paper PMC8449414, “Rational design of ASCT2 inhibitors using an integrated experimental-computational approach” (Proceedings of the National Academy of Sciences of the …, 2021).

“Also recorded” adds a separate entry of the source.

As usually defined, the Ki is a dissociation constant, usually derived from enzyme kinetics or from competition with a known ligand.

T1 sequence (O00341 whole entry): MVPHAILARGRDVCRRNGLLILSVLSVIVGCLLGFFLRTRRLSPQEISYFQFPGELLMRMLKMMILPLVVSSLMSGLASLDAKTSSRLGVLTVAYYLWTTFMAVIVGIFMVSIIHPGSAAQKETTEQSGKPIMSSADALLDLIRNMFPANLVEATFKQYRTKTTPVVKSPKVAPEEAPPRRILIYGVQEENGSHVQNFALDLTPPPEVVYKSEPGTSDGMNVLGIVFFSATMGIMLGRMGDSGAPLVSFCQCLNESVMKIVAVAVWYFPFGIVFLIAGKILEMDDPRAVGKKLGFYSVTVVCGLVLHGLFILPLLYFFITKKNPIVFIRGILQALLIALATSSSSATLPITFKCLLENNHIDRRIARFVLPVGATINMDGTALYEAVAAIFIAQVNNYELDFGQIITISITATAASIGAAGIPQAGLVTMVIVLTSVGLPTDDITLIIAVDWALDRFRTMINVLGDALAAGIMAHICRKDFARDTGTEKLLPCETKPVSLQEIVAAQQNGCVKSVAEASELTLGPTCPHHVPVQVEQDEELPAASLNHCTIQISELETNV

One assay concerns the target T1, hEAAT5 (Homo sapiens, UniProt O00341).
T1 construct: expressed in transfected cells; host or cells: HEK293 (ATCC CRL-11268), transient transfection
Description: Electrophysiology: SLC1 specificity, anion current in transfected HEK293 cells. The assay is classed as cell-based. To be noted: HEK293 cells, 0 mV, 10 mM glutamate and 130 mM NaSCN internal; No current = no outward current up to highest concentration tested (§ 20-50, || 100-400, # 1500-2500 µM). As for the experimental part:
We also tested the specificity of Lc-BPE for ASCT2 over other SLC1 family members (ASCT1, EAAT1-3, and EAAT5).
Fig. S3. SLC-1 specificity of Lc-BPE. (A) Electrophysiological current responses to the application of 100 µM glutamate (red trace) or varying concentrations of Lc-BPE (black, blue and red traces) to rEAAT1-expressing cells HEK293 cells. (B-C) Dose response curves obtained from currents recorded a fter application of Lc-BPE extracellularly to cells transiently expressing hASCT2, rASCT2, hASCT1 (panel B) and rEAAT1, rEAAT2, rEAAT3 and hEAAT5 (panel C) respectively. For hASCT2, rASCT2 and hASCT1, intracellular pipette solution contained 10 mM alanine and 130 mM NaSCN. For rEAAT1, rEAAT2, rEAAT3 and hEAAT5, intracellular solution contained 10 mM glutamate and 130 mM NaSCN. Extracellular solution was the same for all the experiments (140 mM NaCl). The voltage was 0 mV. […]
Cell culture and transfection
Human embryonic kidney 293 (HEK293, ATCC CRL -11268) cells were cultured in DMEM media supplemented with 10% (v/v) fetal bovine serum (FBS), 2 mM glutamine, 1% penicillin streptomycin solution, 1 mM sodium pyruvate and non -essential amino acids. Cells were maintained at 370C in a fully humidified atmosphere containing 5% CO2. rASCT2, hASCT2, hASCT1, EAAT1, EAAT2, EAAT3, EAAT5 and YFP complementary DNAs were each used to transiently transfect HEK293 using POLYPLUS Jet-prime transfection reagent. Cells were analyzed using electrophysiological techniques 24-40 hours after transfection.
Electrophysiological techniques
Electrophysiological experiments were performed as described previously 1,2. Stock solutions of inhibitor was prepared in dimethyl sulfoxide (DMSO) up to 100 mM.
Dilutions to working concentrations were made using external buffer. The highest […]
cells. For rASCT2, hASCT2 and hASCT1, external buffer contained 140 mM NaCl, 2 mM MgCl2, 2 mM CaCl2, and 10 mM HEPES, pH 7.40 while internal pipette solution comprised of 130 mM NaSCN, 2 mM MgCl2, 10 mM EGTA, 10 mM HEPES and 10mM alanine, pH 7.40. For specificity experiments with EAAT1, EAAT2, EAAC1 and EAAT5, internal solution contained 10 mM glutamate instead of alanine. Compounds were applied to HEK293 cells expressing DNA of interest suspended from a current recording electrode in whole cell configuration44 through a rapid solution exchange device described previously45. Cells are immersed in external buffer bath used to dissolve the inhibitors. The open pipette resistance was between 3 and 6 MΩ. Series resistance was not compensated in these experiments due to relatively small currents. Current s traces were recorded using an Adams and List EPC7 amplifier and digitized using a Molecular Devices Digidata A/D converter.
Data analysis was performed as described previously 46. Linear and nonlinear curve fitting of the experimental data were analyzed using MicroCal Origin software. Linear plots were fitted using the general equation (y = a + bx) obtaining adjusted R 2 and Pearson’s r values. Nonlinear dose–response relationships were fitted with a Michaelis – Menten-like equation to obtain apparent Ki values in the absence of substrate. For competition studies, equation I = I1 + I2 [Inh]/(Ki + [Inh]) was used for fitting, where I1 is the alanine induced current without the inhibitor, and I2 is the maximum current in the presence of saturating inhibitor concentration, [Inh]max 1,2. At least five experiments were performed for each compound. Unless stated otherwise, the error bars in all our graphs represent mean ± SD .
ASCT2 expression and purification
Human ASCT2 (hASCT2) was produced in Pichia pastoris X-33 strain (Invitrogen) in fermentor26 and purified using DDM and CHS (Anatrace) and 1 mM L-glutamine (Merck) to maintain protein stability 27. Membranes representing ~1.5 g cells were solubilized in buffer A (25 mM Tris-HCl, pH 7.4, 300 mM NaCl, 10% (vol/vol) glycerol, 1 mM L - glutamine, 1% DDM and 0.1% CHS) for 1 h at 4 °C; ultracentrifuged (30 min, 442,907 × […]
In the case of `O=C(O[C@@H]1CN[C@H](C(=O)O)C1)c1ccc(OCc2ccccc2)cc1` [ERA-31], the “Binding affinity Ki” value is “No current”.
On the same count and under the same terms, the entry for `O=C(O[C@H]1CN[C@H](C(=O)O)C1)c1ccc(C(=O)c2ccccc2)cc1` [ERA-35] is “No current”; for `O=C(O[C@@H]1CN[C@H](C(=O)O)C1)C(c1ccccc1)c1ccccc1` [ERA-29] it is “No current”.
The same measure, in the same setting: the entry for `O=C(O[C@@H]1CN[C@H](C(=O)O)C1)c1ccccc1-c1ccccc1` [ERA-3] is “No current”; for `O=C(O[C@@H]1CN[C@H](C(=O)O)C1)c1ccc(C(O)c2ccccc2)cc1` (stereo partly drawn) [ERA-9] it is “No current; also recorded: No inhibitory activity was detected”; for `N[C@@H](COC(=O)c1ccccc1)C(=O)O` [ERA-25] it is “No current”.
Same read-out and setting: the same measure for `N[C@@H](COC(=O)c1cccnc1)C(=O)O` [ERA-28]: “No current”; for `O=C(Nc1ccc(C(=O)O[C@@H]2CN[C@H](C(=O)O)C2)cc1)c1ccc(C(F)(F)F)cc1` [ERA-11]: “No current”.

The same assay, now with this note: HEK293 cells, 0 mV, 10 mM glutamate and 130 mM NaSCN internal; No current = no outward current up to highest concentration tested (§ 20-50, || 100-400, # 1500-2500 µM); read-out: Binding affinity Ki.
Consider `O=C(O[C@@H]1CN[C@H](C(=O)O)C1)c1ccc(-c2ccc(C(F)(F)F)cc2)cc1` [ERA-5], for which the Ki worked out at 1050 ± 150 nM.
Still for that read-out and setting: the same measure for `Cc1ccccc1-c1ccc(C(=O)O[C@@H]2CN[C@H](C(=O)O)C2)cc1` [ERA-6]: 2500 ± 930 nM.
On the same count and under the same terms, the same measure for `O=C(O[C@@H]1CN[C@H](C(=O)O)C1)c1ccc(Oc2ccccc2)cc1` [ERA-16]: 6170 ± 1470 nM.
The same measure, in the same setting: the figure for `O=C(O[C@@H]1CN[C@H](C(=O)O)C1)c1ccc(-c2ccc(F)cc2)cc1` [ERA-4] is 2400 ± 720 nM; for `N[C@@H](COC(=O)c1ccc(NC(=O)c2ccccc2)cc1)C(=O)O` [ERA-21] it is 21300 ± 3150 nM; for `O=C(O[C@@H]1CN[C@H](C(=O)O)C1)c1ccc(-c2ccccc2)cc1` [Lc-BPE, L-cis hydroxyproline biphenyl ester] it is 2220 ± 460 nM.

Staying with this assay, now noted: hEAAT5 versus rASCT2.
On to `O=C(O[C@@H]1CN[C@H](C(=O)O)C1)c1ccc(-c2ccccc2)cc1` [Lc-BPE, L-cis hydroxyproline biphenyl ester], for which the “Ki for hEAAT5 higher than for rASCT2” value is reported as roughly 3 fold.
